Measured values published in the NIST ThermoML archive (doi:10.1021/je4007184).
± gives the expanded uncertainty stated by the source.

How the values were obtained:
[1] = 298.15 K; 101.33 kPa; Liquid; Pycnometric method
[2] = Boiling temperature at pressure P; details: 101 kPa; Liquid; Ebulliometric method (Recirculating still)
[3] = refractive index (Na D-line) (dimensionless); details: 298.15 K; 101.33 kPa; Liquid; Standard Abbe refractometry

Row | Structure (SMILES) | mass density [1] | Boiling temperature at pressure P [2] | refractive index [3]
1 | CC(C)CCO [3-methylbutan-1-ol] | 811.04 ± 0.6 kg/m3 | 131.1 ± 0.4 °C | 1.4155 ± 0.0005
2 | CCCCCO [pentan-1-ol] | 810.12 ± 0.6 kg/m3 | 137.8 ± 0.4 °C | 1.4078 ± 0.0005
3 | CCCC(C)O (configuration not stated) [pentan-2-ol] | 806.57 ± 0.61 kg/m3 | 119.1 ± 0.4 °C | 1.4048 ± 0.0005
4 | CCCOC(C)=O [propyl ethanoate] | 882.8 ± 0.68 kg/m3 | 101.5 ± 0.4 °C | 1.3821 ± 0.0005
